Source: ChEMBL document CHEMBL1153662, “Synthesis and antiviral activity of alkylphosphonic acid derivatives of oxetanocin-A” (Bioorg Med Chem Lett, 1994)

Key:
Format in all cases: functional, cell-based
MT4 = test: In vitro […] against HIV-1 in MT-4 cells by indirect an immunofluorescence assay at concentration up to 100 ug/mL; devoid of activity; settings: Homo sapiens
Vero [1] = test: In vitro antiviral activity against HSV-1 in vero cells by a plaque reduction assay at concentration up to 10 ug/mL; devoid of activity; settings: Chlorocebus sabaeus
Vero [2] = test: In vitro antiviral activity against HSV-2 in vero cells by a plaque reduction assay at concentration up to 10 ug/mL; devoid of activity; settings: Chlorocebus sabaeus

Measured: Activity

Nc1ncnc2c1ncn2C1OC(CCCP(=O)(O)O)C1CO (configuration not stated)
devoid of activity: MT4 | Vero [1] | Vero [2]

Nc1ncnc2c1ncn2C1OC(/C=C/P(=O)(O)O)C1CO (configuration not stated)
devoid of activity: MT4 | Vero [1] | Vero [2]

Nc1ncnc2c1ncn2C1OC(C(O)P(=O)(O)O)C1CO (configuration not stated)
devoid of activity: MT4 | Vero [1] | Vero [2]

Nc1ncnc2c1ncn2C1OC(CCP(=O)(O)O)C1CO (configuration not stated)
devoid of activity: MT4 | Vero [1] | Vero [2]
